Measurements taken from patent US9334267B2, “RAF inhibitor compounds” (Deciphera Pharmaceuticals, LLC, priority 2012, dated 2016).
Where two headings read alike, the source gives them in different places.

Legend:
[1] = test system: A375res cells; assay: Proliferation assay in vemurafenib-resistant melanoma cells A375res; settings: 72 hour proliferation assay
[2] = test system: phospho-ERK in HCT-116 cells; assay: HCT-116 cell pERK assay (AlphaScreen SureFire); type: cell-based; settings: B-Raf wild type, K-Ras mutation
Method: Examples of Formula I are tested against HCT-116 cells harboring wild type B-Raf and K-Ras mutation. The phospho-ERK activities are evaluated as described below.
HCT-116 cells (catalog #CCL-247) are obtained from the American Type Culture Collection (ATCC, Manassas, Va.). Briefly, cells are grown in McCoy's 5A supplemented with 10% characterized fetal bovine serum (Invitrogen, Carlsbad, Calif.), and 1% Penicillin/Streptomycin/L-Glutamine at 37 degrees Celsius, 5% CO2, and 95% humidity. Cells are allowed to expand until reaching 75-90% confluency at which point they are subcultured or harvested for assay use. HCT-116 cells suspended in complete media are added to 384-well tissue culture treated plates (3×10^5 cells/mL; 7,500 cells per well). The cells are incubated overnight at 37 degrees Celsius, 5% CO2, and 95% humidity. Next, test compound or DMSO diluted in complete media is added to the wells (0.25% final DMSO concentration). The plates are then incubated for 4 hours at 37 degrees Celsius, 5% CO2, and 95% humidity. Following compound incubation, the cells are lysed at 4° C. for 20 minutes with shaking. Cell lysates are centrifuged and the supernatant is transferred to a new plate. An aliquot of each lysate is transferred to a white 384-well assay plate. Using the AlphaScreen SureFire pERK kit (Perkin-Elmer, Waltham, Mass.), an acceptor bead mixture is added to each well and incubated for 2 h at room temperature in the dark. A donor bead mixture is then added to each well and incubated for 2 h at room temperature in the dark. Plates are read using a Synergy2 plate reader (Biotek, Winooski, Vt.) in Plate Mode with Timing Control. Read: (F)1: excitation: 680/30 nm, emission: Plug. 2: Excitation: Plug, emission: 570/100 nm. Top mirror 635 nm. Data is analyzed using Prism software (Graphpad, San Diego, Calif.) to calculate IC50 values and Excel software (Microsoft, Redmond, Wash.) to calculate stimulation compared to control.

[3] = test system: A375res cells

| Compound | IC50 shift A375 to A375res [1] | concentrations at which the pERK signal is stimulated [2] | IC50 shift A375 to A375res [3] |
| --- | --- | --- | --- |
| CCCS(=O)(=O)Nc1ccc(F)c(C(=O)c2c[nH]c3ncc(Cl)cc23)c1F [PLX4720, reference compound] | more than 27 fold | – | – |
| CCCS(=O)(=O)Nc1ccc(F)c(C(=O)c2c[nH]c3ncc(-c4ccc(Cl)cc4)cc23)c1F [vemurafenib, reference compound] | – | up to 3 uM | more than 57 fold |
